Data on 4 compounds can be found in ChEMBL document CHEMBL3132798, “Ketorolac beats ketoprofen: lower photodecarboxylation, photohemolysis and phototoxicity” (Medchemcomm, 2013).

Series [1] is described as follows: Phototoxicity against human skin fibroblasts at 1 to 100 uM measured after 14 hrs incubation and 24 hrs after initial 14 hrs incubation by MTS assay. To be noted: skin fibroblast. Background: Formazan colour is commonly taken as a measure of viable cells.
Series [2] can be described thus: Photohemolytic activity against human erythrocytes after 15 mins in presence of 81197.4 mW/m2 of UVA light. The format is ADME, cell-based. The note with it: erythrocyte, 0.25 h.
A short description of series [3]: Photohemolytic activity against human erythrocytes at 60 uM after 15 mins in presence of 81197.4 mW/m2 of UVA light. The format is ADME, cell-based, Erythrocyte.

Turning to `CCc1cccc(C(=O)c2ccccc2)c1`, the Activity result is “Non-toxic” in series [1] and “Dose-dependent effect” in series [2].
Take `O=C(c1ccccc1)c1ccc2n1CCC2C(=O)O` (configuration not stated) [KETOROLAC]: in series [3] (erythrocytes, read-out: Activity), the hemolysis at 0.25 h, 60 µM is 20%. In addition, the Activity entry in series [1] is listed as “Non-toxic”.
As for `CC(C(=O)O)c1cccc(C(=O)c2ccccc2)c1` (configuration not stated) [KETOPROFEN], the Activity entry in series [1] is reported as “Non-toxic”.
Turning to `O=C(c1ccccc1)c1ccc2n1CCC2`, the Activity result was “Non-toxic” in series [3] (erythrocyte, 0.25 h, 60 µM) and “Non-toxic” in series [1].
